Test results published in patent US9447037B2, “4-(5-(4-chlorophenyl)-2-(2-cyclopropylacetyl)-1,4-dimethyl-1H-pyrrol-3-yl)benzenesulfonamide as alpha 7 nAChR modulator” (Lupin Limited, priority 2013, dated 2016).

Experiments:
Wistar rats = test: Novel Object Recognition Task (subchronic study); format: in vivo, rat; settings: p.o.; for Minimum effective dose: subchronic 7 days, Wistar rats
Text: Briefly, Wistar rats were acclimatized to the CNS-Laboratory-animal holding room for at least 7 days prior to the randomization, under standard housing conditions. Animals were handled and familiarized with the injection procedures during this period. Two days before the experimentation (acquisition trial, T1), rats were randomized in different treatment-groups based on their body weights namely, vehicle (Tween 80 (1%, v/v), Vitamin E TPGS (Speziol®, 10%, v/v) q.s. 100% v/v in milli-Q water, 2 ml/kg, p.o.), scopolamine (1 mg/kg, i.p.) and test compounds (Compound 1: ranging from 0.005 to 0.05 mg/kg, p.o. and compound A:ranging from 0.05 to 0.5 mg/kg, p.o.)
Vehicle or test compounds (Compounds 1 and A) were administered in a single-dose, subchronically for 7 days, and 1 h before the acquisition trial on day-8 in respective treatment-groups. In order to induce cognitive deficits, scopolamine (1 mg/kg) was injected 25 min before the acquisition trial (T1). Acquisition (T1) and Retention (T2) trials were separated by an intertrial interval of 30 min. In the first trial (acquisition trial, T1), the rats were subjected to arena with two identical objects for a period of 5 min and exploration time towards individual object was measured. In retention trial, one of the identical object was replaced with novel object.
In the time-delay induced amnesia paradigm, vehicle or test compounds (Compounds 1 and A) were administered once-daily for 7 days, and 1 h before the acquisition trial (T1) on day-8 in the respective treatment-groups. After this, a second, retention (T2) trial, was conducted on day-9. A 24 h inter-trial interval served to induce spontaneous decay of memory and resultant amnesia in this paradigm.
In the second trial (retention trial, T2), one of the objects presented in T1 was replaced by a novel object, and the rats were left to explore in the arena for 5 min. The time spent exploring the familiar (F) and the novel object (N) was recorded separately. All the animals underwent habituation session of 10 min duration 24 h prior to acquisition trial to get them acclimatized to the test arena. Both the trials (acquisition and retention) were of 5 min duration. The NOR task was performed in the square-open-field boxes (40 cm long×40 cm wide×40 cm high) made up of non-reflective PVC sheets with black surrounding walls and light gray floor. Colored plastic and glass bottles of different size, shapes and texture, served as object of exploration.
Object exploration was measured as the ‘time spent by the animal’ directing its nose at a distance 2 cm to the object or touching and exploring it. Time spent climbing on the object was not accounted as object exploration. In order to avoid the presence of olfactory trails, the test boxes and objects were always thoroughly cleaned between trials of individual animals.
Mean and standard error of the mean (S.E.M.) was calculated for the exploration time of each identical objects in T1, novel and familiar objects in T2 and discrimination index across the treatment groups. Exploration time within groups was compared with Student's paired t-test. Discrimination index was compared between groups by One-way ANOVA with Dunnett's post hoc test in comparison to the scopolamine-treated group or vehicle-treated group as per the paradigm. Discrimination index was compared between groups by unpaired t-test in comparison to the vehicle-treated group. p<0.05 was considered as significant. All statistical comparisons were performed using GraphPad Prism version 5.00 for Windows, GraphPad Software, San Diego Calif. USA.
The discrimination index (DI) was calculated based on explorations in T2 trial, using the formula.
Discrimination Index equals (time spent investigating novel object−time spent investigating familiar object)/(time spent investigating novel object+time spent investigating familiar object). […] All the experimental recordings were carried out by manual observation of animals by trained scientists. […]

Sprague Dawley rats = test: Social Recognition Task (subchronic study); format: in vivo, rat; settings: p.o.; for Minimum effective dose: subchronic 7 days, Sprague Dawley rats
Text: Briefly, Sprague Dawley rats were acclimatized to the CNS-Laboratory-animal holding room for at least 7 days prior to the randomization, under standard housing conditions. The animals were handled and familiarized with the injection procedures during this period. Two days before the experimentation (social interaction trial, SIT1), the rats were randomized in different treatment-groups based on their body weights namely, vehicle (Tween 80 (1%, v/v), Vitamin E TPGS (Speziol®, 10%, v/v) q.s. 100% v/v in milli-Q water; 2 ml/kg, p.o.), scopolamine (0.5 mg/kg, i.p.) and test compound (Compound 1:ranging from 0.05 to 0.50 mg/kg, p.o.).
Seven days before experiment, the vehicle or the test compound was administered to the adult rats once-daily and 1 h before the SIT1 on day-8 in respective treatment-groups. Scopolamine or vehicle was administered 20 min prior to the first social interaction (acquisition, SIT1) trial; scopolamine administration served to induced amnesia. After this treatment, the animals were subjected to the first social interaction (acquisition, SIT1) trial, which was followed by a second (retention, SIT2) trial, 30 min later.
In the case of time-delay induced amnesia paradigm, the vehicle or the test compounds (Compound 1) were administered to the adult rats once-daily for 7 days and 1 h before the SIT1 on day-8, in respective treatment-groups. After this treatment, the animals were subjected to a second (retention, SIT2) trial on day-9. The 24 h inter-trial interval served to induce spontaneous decay of memory and resultant amnesia.
Both the trials (acquisition and retention) were of 5 min duration. The social recognition task was performed in the home-cages made up of transparent polycarbonate. Juvenile rats of 3-4 weeks of age served as subjects for exploration to the adult rats. Adult rats were habituated to the home-cage (without juvenile) for 5 min just before SIT1.
Subject exploration (towards juvenile) was measured as the ‘time spent by the adult animal’ exploring the juvenile rat socially viz. sniffing, following, climbing over or going under or aggression. In order to avoid the confounding olfactory trails, the home-cage was individualized for each adult rat. During the second trial (retention trial, SIT2), adult rats were re-exposed to the same juvenile rat previously introduced earlier in the SIT1. The time of exploration in seconds was recorded for both sessions (SIT1 and SIT2).
Mean and standard error of mean (S.E.M) were determined for the exploration time of each social recognition trial (SIT1, SIT2) and recognition index across the treatment-groups. […]
The recognition index (RI) was calculated using the formula: Recognition index equals(time spent investigating juvenile rat in SIT2/time spent investigating juvenile rat in SIT1). […]

[1] = Time-delay induced amnesia (24 h)

SMILES	Minimum effective dose (Wistar rats; Scopolamine induced amnesia) [mg/kg]	Minimum effective dose (Wistar rats; [1]) [mg/kg]	discrimination index as compared to vehicle-treated group (Wistar rats; 24 h time delay-induced amnesia, subchronic (7 day) 0.05 mg/Kg, FIG. 1A)	discrimination index as compared to scopolamine treated group (Wistar rats; Scopolamine-induced amnesia, subchronic (7 day) 0.05 mg/Kg, FIG. 1B)	recognition index (RI) as compared to vehicle-treated group (Sprague Dawley rats; 24 h time delay-induced amnesia, subchronic (7 day) 0.05 mg/Kg, FIG. 2A)	Minimum effective dose (Sprague Dawley rats; Scopolamine induced amnesia) [mg/kg]	recognition index (RI) as compared to scopolamine treated group (Sprague Dawley rats; Scopolamine-induced amnesia, subchronic (7 day) 0.05 mg/Kg, FIG. 2B)	Minimum effective dose (Sprague Dawley rats; [1]) [mg/kg]
CCC(=O)c1c(-c2ccc(S(N)(=O)=O)cc2)c(C)c(-c2ccc(Cl)cc2)n1C [Compound A, 4-(5-(4-chlorophenyl)-1,4-dimethyl-2-propionyl-1H-pyrrol-3-yl)benzenesulfonamide, reference compound]	>0.5	0.15						
Cc1c(-c2ccc(S(N)(=O)=O)cc2)c(C(=O)CC2CC2)n(C)c1-c1ccc(Cl)cc1 [Compound 1, 4-(5-(4-chlorophenyl)-2-(2-cyclopropylacetyl)-1,4-dimethyl-1H-pyrrol-3-yl)benzenesulfonamide]	0.015	0.015	significantly increased	significantly increased	significantly decreased	0.015	significantly decreased	0.05
